Assay results published in patent US12285012B2, “Compositions comprising pyridine carboxylate herbicides with acetolactate synthase (ALS) inhibitor herbicides” (Corteva Agriscience LLC, priority 2018, dated 2025).

What was measured:
[1] = system: barnyard grass (ECHCG, Echinochloa crus-galli); test: Greenhouse postemergence herbicidal effect; format: in vivo; conditions: Penoxsulam 20 g/ha
Source text: (§1) Seeds of the desired test plant species were planted in a 90:10% v/v (volume/volume) mixture of PRO-MIX® BX (Premier Tech Horticulture, Quakertown, PA, USA) and PROFILE® GREENS GRADE™ (Profile Products LLC, Buffalo Grove, IL, USA) planting mixture, which typically has a pH of 5.2 to 6.2 and an organic matter content of at least 50 percent, in plastic pots with a surface area of 103.2 square centimeters (cm^2). In some aspects, to ensure good germination and healthy plants, a fungicide treatment and/or other chemical or physical treatment was applied. The plants were grown for 7-36 days (d) in a greenhouse with an approximate 14-hour (h) photo-period which was maintained at about 23° C. during the day and 22° C. during the night. Nutrients and water were added on a regular basis and supplemental lighting was provided with overhead metal halide 1000-Watt lamps as necessary. The plants were employed for testing when they reached the second or third true leaf stage.
(§2) Emulsifiable concentrates of each of each pyridine carboxylate herbicide (Compound A or Compound B) were prepared at 100 grams acid equivalent per liter (g ae/L). The emulsifiable concentrates also included a safener, cloquintocet-mexyl, at 120 grams active ingredient per liter (g ai/L), unless otherwise noted below. An aliquot of each emulsifiable concentrate was placed in a 25 mL glass vial and diluted with an aqueous mixture of 1.25% (v/v) ACTIROB® B esterified rapeseed oil (Bayer Crop Science, Research Triangle Park, NC, USA) or MSO® Concentrate with LECI-TECH® methylated soybean oil (Loveland Products, Loveland, CO, USA) to obtain concentrated stock solutions at the highest application rate for each herbicide, based upon a 12 milliliter (mL) application volume at a rate of 187 liters per hectare (L/ha). The concentrated stock solutions were further diluted with an aqueous mixture of 1.25% v/v ACTIROB® B or MSO® Concentrate with LECI-TECH® to obtain stock solutions at reduced application rates for each herbicide. Spray solutions of the herbicide combinations (Compound A or Compound B plus ALS herbicide) were prepared by adding weighed amounts or aliquots of the ALS herbicides to the stock solutions of Compound A or Compound B to form 12-mL spray solutions in two- or three-way combinations.
(§3) The spray solutions were applied to the plant material with an overhead Mandel track sprayer equipped with 8002E nozzles calibrated to deliver 187 L/ha over an application area of 0.503 square meters (m^2) at a spray height of 18 inches (43 centimeters (cm)) above the average plant canopy. Control plants were sprayed in the same manner with the solvent blank. All pyridine carboxylate herbicide (component a) application rates are given as “g ae/ha” and all ALS inhibitor (component b) application rates are given as “g ai/ha.”
(§4) The treated plants and control plants were placed in a greenhouse as described above and watered by sub-irrigation to prevent wash-off of the test compounds. After 20-22 d, the condition of the test plants as compared with that of the control plants was determined visually and scored on a scale of 0 to 100 percent where 0 corresponds to no injury and 100 corresponds to complete kill.

[2] = system: broadleaf signalgrass (BRAPP, Brachiaria platyphylla); test: Greenhouse postemergence herbicidal effect; format: in vivo; conditions: Penoxsulam 20 g/ha
Source text: as §1, §2, §3, §4

[3] = system: small-flower flatsedge (CYPDI, Cyperus difformis); test: Greenhouse postemergence herbicidal effect; format: in vivo; conditions: Penoxsulam 20 g/ha
Source text: as §1, §2, §3, §4

spring wheat (TRZAS) = format: in vivo, Triticum aestivum; conditions: Bispyribac 90 g/ha
Summary of the method: (§5)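 Visual injury ratings (0 = no injury, 100 = complete kill) were taken 20–22 d after treatment relative to solvent-blank controls. Applications were made to plants at the second or third true leaf stage, using emulsifiable concentrates with cloquintocet-mexyl safener.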

[4] = system: Canadian thistle (CIRAR, Cirsium arvense); test: Greenhouse postemergence herbicidal effect; format: in vivo; conditions: Bispyribac 90 g/ha
Summary of the method: as §5

[5] = system: spring rape (BRSNN, Brassica napus); test: Greenhouse postemergence herbicidal effect; format: in vivo; conditions: Bispyribac 90 g/ha
Summary of the method: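 Injury was rated visually after 20-22 d on a 0 (none) to 100% (complete kill) scale relative to solvent-sprayed controls, with sub-irrigation to avoid wash-off. Rates were given in g ae/ha or g ai/ha depending on component.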

[6] = system: poinsettia (EPHHL, Euphorbia heterophylla); test: Greenhouse postemergence herbicidal effect; format: in vivo; conditions: Bispyribac 90 g/ha
Source text: as §1, §2, §3, §4

[7] = system: grain sorghum (SORVU, Sorghum vulgare); test: Greenhouse postemergence herbicidal effect; format: in vivo; conditions: Bispyribac 90 g/ha
Source text: as §1, §2, §3, §4

[8] = system: nutsedge (CYPES, Cyperus esculentus); test: Greenhouse postemergence herbicidal effect; format: in vivo
Source text: as §1, §2, §3, §4

[9] = system: common sunflower (HELAN, Helianthus annuus); test: Greenhouse postemergence herbicidal effect; format: in vivo; conditions: Bispyribac 90 g/ha
Source text: as §1, §2, §3, §4

[10] = system: ivyleaf morningglory (IPOHE, Ipomoea hederacea); test: Greenhouse postemergence herbicidal effect; format: in vivo; conditions: Bispyribac 90 g/ha
Source text: as §1, §2, §3, §4

[11] = system: annual ryegrass (LOLMG=Lolium multiflorum subsp. gaudini); test: Greenhouse postemergence herbicidal effect; format: in vivo; conditions: 20 g/ha
Source text: as §1, §2, §3, §4

[12] = system: wild oat (AVEFA, Avena fatua); test: Greenhouse postemergence herbicidal effect; format: in vivo; conditions: 20 g/ha
Source text: as §1, §2, §3, §4

[13] = system: large crabgrass (DIGSA, Digitaria sanguinalis); test: Greenhouse postemergence herbicidal effect; format: in vivo; conditions: 20 g/ha
Source text: as §1, §2, §3, §4

[14] = system: giant foxtail (SETFA, Setaria faberi); test: Greenhouse postemergence herbicidal effect; format: in vivo; conditions: 20 g/ha
Source text: as §1, §2, §3, §4

COc1cnc(OC)n2nc(NS(=O)(=O)c3c(OCC(F)F)cccc3C(F)(F)F)nc12 [Penoxsulam, penoxsulam]
% visual injury Obs [1]: 60%
% visual injury Obs [2]: 32%
% visual injury Obs [3]: 17%

COc1cc(OC)nc(Oc2cccc(Oc3nc(OC)cc(OC)n3)c2C(=O)O)n1 [Bispyribac, bispyribac]
% visual injury (spring wheat (TRZAS)): 18%
% visual injury [4]: 90%
% visual injury [5]: 88%
% visual injury [6]: 95%
% visual injury [7]: 73%
% visual injury ([8]; Bispyribac 90 g/ha): 20%
% visual injury [9]: 97%
% visual injury [10]: 70%

COc1cc(OC)nc(NC(=O)NS(=O)(=O)c2ncccc2C(=O)N(C)C)n1 [Nicosulfuron, nicosulfuron]
% visual injury, Obs [11]: 96%
% visual injury, Obs [12]: 96%
% visual injury, Obs ([8]; 20 g/ha): 40%
% visual injury, Obs [13]: 65%
% visual injury, Obs [14]: 100%
